Laboratory results reported in ChEMBL document CHEMBL1150911, “New ceramide from marine sponge Haliclona koremella and related compounds as antifouling substances against macroalgae” (J Nat Prod, 1998).
The source made the active and inactive calls. The calls are words filed in the database; no cut-off is given here.

Legend:
Ulva [1] = test: Antifouling activity against Ulva conglobata spores assessed as germination and attachment rate at 5 ppm; assay type: functional
Brachiomonas submarina [2] = test: Antimicrobial activity against […] at 5 ppm; assay type: functional, organism-based
Prorocentrum micans = test: Antimicrobial activity against Prorocentrum micans at 5 ppm; assay type: functional, organism-based
Skeletonema costatum = test: Antimicrobial activity against Skeletonema costatum at 5 ppm; assay type: functional, organism-based
[3] = system: Anagnostidinema amphibium; test: Antimicrobial activity against Oscillatoria amphibia at 5 ppm; assay type: functional, organism-based
Brachiomonas submarina [4] = test: Antimicrobial activity against […] at 1 ppm; assay type: functional, organism-based
[5] = system: Anagnostidinema amphibium; test: Antimicrobial activity against Oscillatoria amphibia at 1 ppm; assay type: functional, organism-based
Ulva [6] = test: Antifouling activity against Ulva conglobata spores assessed as germination and attachment rate at 1 ppm; assay type: functional
Ulva [7] = test: Toxicity against Ulva conglobata at 50 ppm; assay type: organism-based; conditions: in vivo

SMILES	Activity (Brachiomonas submarina [2])	Activity (Prorocentrum micans)	Activity [3]	Activity (Ulva [7])	further results
CCCCCCCCCCCCC/C=C/[C@@H](O)[C@H](CO)N(C)C	Active	Active	Active		Activity (Ulva [1]): Active; Activity (Skeletonema costatum): Active
CCCCCCCCCCCCCCC[C@@H](O)[C@@H](N)CO	Active	Active	Active		Activity (Brachiomonas submarina [4]): Active; Activity [5]: Active
CCCCCCCCCCCCC/C=C/[C@@H](O)[C@@H](N)CO [SPHINGOSINE]	Active	Active	Active		Activity (Ulva [6]): 15%; Activity (Ulva [1]): 0%; Activity (Skeletonema costatum): Active
CCCCCCCCCCCCC/C=C/[C@@H](O)[C@H](CO)NC(C)=O				Non-toxic	
CCCCCCCCCCCCCCCCCCCCCC(=O)N[C@@H](CO)[C@H](O)/C=C/CCCCCCCCCCC(C)C				Non-toxic	
CCCCCCCCCCCCC/C=C/[C@@H](O)[C@H](CO)NC(=O)CCCCCCC				Non-toxic	
CCCCCCCCCCCCC/C=C/[C@@H](O)[C@H](CO)NC(=O)CCCCCCCCCCCCCCC				Non-toxic	
CCCCCCCCCCCCC/C=C/[C@@H](O)[C@H](CO)NC(=O)CCCCC				Non-toxic	
